From PubChem BioAssay (NCI)
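These data come from cells grown in 96-well plates and exposed to compound for 48 hours at five concentrations. TGI: total growth inhibition.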

How the values were obtained:
Experiment in all cases: growth of human tumour cells (NCI), 48 h
786-0 renal = test system: 786-0 renal
A498 renal = test system: A498 renal
A549 NSCLC = test system: A549 NSCLC
ACHN renal = test system: ACHN renal
BT-549 breast = test system: BT-549 breast
CAKI-1 renal = test system: CAKI-1 renal
CCRF-CEM leukemia = test system: CCRF-CEM leukemia
COLO 205 colon = test system: COLO 205 colon
DU-145 prostate = test system: DU-145 prostate
EKVX NSCLC = test system: EKVX NSCLC
HCC-2998 colon = test system: HCC-2998 colon
HCT-116 colon = test system: HCT-116 colon
HCT-15 colon = test system: HCT-15 colon
HOP-62 NSCLC = test system: HOP-62 NSCLC
HOP-92 NSCLC = test system: HOP-92 NSCLC
HS 578T breast = test system: HS 578T breast
HT29 colon = test system: HT29 colon
IGROV1 ovarian = test system: IGROV1 ovarian
K-562 leukemia = test system: K-562 leukemia
KM12 colon = test system: KM12 colon
LOX IMVI melanoma = test system: LOX IMVI melanoma
M14 melanoma = test system: M14 melanoma
MALME-3M melanoma = test system: MALME-3M melanoma
MCF7 breast = test system: MCF7 breast
MDA-MB-231 breast = test system: MDA-MB-231 breast
MDA-MB-435 = test system: MDA-MB-435
MDA-N = test system: MDA-N
MOLT-4 leukemia = test system: MOLT-4 leukemia
NCI-H226 lung = test system: NCI-H226 lung
NCI-H23 lung = test system: NCI-H23 lung
NCI-H460 lung = test system: NCI-H460 lung
NCI-H522 lung = test system: NCI-H522 lung
NCI/ADR-RES ovarian = test system: NCI/ADR-RES ovarian
OVCAR-3 ovarian = test system: OVCAR-3 ovarian
OVCAR-4 ovarian = test system: OVCAR-4 ovarian
OVCAR-5 ovarian = test system: OVCAR-5 ovarian
OVCAR-8 ovarian = test system: OVCAR-8 ovarian
PC-3 prostate = test system: PC-3 prostate
RPMI-8226 leukemia = test system: RPMI-8226 leukemia
RXF 393 renal = test system: RXF 393 renal
SF-268 CNS = test system: SF-268 CNS
SF-295 CNS = test system: SF-295 CNS
SF-539 CNS = test system: SF-539 CNS
SK-MEL-2 melanoma = test system: SK-MEL-2 melanoma
SK-MEL-28 melanoma = test system: SK-MEL-28 melanoma
SK-MEL-5 melanoma = test system: SK-MEL-5 melanoma
SK-OV-3 ovarian = test system: SK-OV-3 ovarian
SN12C renal = test system: SN12C renal
SNB-19 CNS = test system: SNB-19 CNS
SNB-75 CNS = test system: SNB-75 CNS
SR leukemia = test system: SR leukemia
SW-620 colon = test system: SW-620 colon
T-47D breast = test system: T-47D breast
TK-10 renal = test system: TK-10 renal
U251 CNS = test system: U251 CNS
UACC-257 melanoma = test system: UACC-257 melanoma
UACC-62 melanoma = test system: UACC-62 melanoma
UO-31 renal = test system: UO-31 renal

With COc1cccc2c3ccccc3c3nc[nH]c3c12 the TGI (786-0 renal) was > 57.9 µM, the TGI (A498 renal) was > 90.5 µM and the TGI (A549 NSCLC) was > 100 µM. The TGI (ACHN renal) was > 100 µM, the TGI (BT-549 breast) was > 100 µM and the TGI (CAKI-1 renal) was > 100 µM. For the same compound, the TGI (CCRF-CEM leukemia) was 52.5 µM, the TGI (COLO 205 colon) was 36.1 µM and the TGI (DU-145 prostate) was > 100 µM. The TGI (EKVX NSCLC) was > 100 µM, the TGI (HCC-2998 colon) was > 55.6 µM and the TGI (HCT-116 colon) was > 100 µM. The TGI (HCT-15 colon) was 97.1 µM, the TGI (HOP-62 NSCLC) was > 100 µM and the TGI (HOP-92 NSCLC) was 61.9 µM. For the same compound, the TGI (HS 578T breast) was 3.75 µM, the TGI (HT29 colon) was > 100 µM and the TGI (IGROV1 ovarian) was > 100 µM. For the same compound, the TGI (K-562 leukemia) was 28.4 µM, the TGI (KM12 colon) was > 100 µM and the TGI (LOX IMVI melanoma) was > 100 µM. The TGI (M14 melanoma) was > 100 µM, the TGI (MALME-3M melanoma) was > 100 µM and the TGI (MCF7 breast) was > 100 µM. The TGI (MDA-MB-231 breast) was > 79.2 µM, the TGI (MDA-MB-435) was > 94.6 µM and the TGI (MDA-N) was > 100 µM. For the same compound, the TGI (MOLT-4 leukemia) was 28.4 µM, the TGI (NCI-H226 lung) was > 95 µM and the TGI (NCI-H23 lung) was > 100 µM. For the same compound, the TGI (NCI-H460 lung) was > 69.2 µM, the TGI (NCI-H522 lung) was > 70.1 µM and the TGI (NCI/ADR-RES ovarian) was > 100 µM. For the same compound, the TGI (OVCAR-3 ovarian) was > 100 µM, the TGI (OVCAR-4 ovarian) was > 100 µM and the TGI (OVCAR-5 ovarian) was > 100 µM. For the same compound, the TGI (OVCAR-8 ovarian) was > 100 µM, the TGI (PC-3 prostate) was > 100 µM and the TGI (RPMI-8226 leukemia) was 44.5 µM. The TGI (RXF 393 renal) was > 100 µM, the TGI (SF-268 CNS) was > 100 µM and the TGI (SF-295 CNS) was 46.4 µM. The TGI (SF-539 CNS) was 52 µM, the TGI (SK-MEL-2 melanoma) was > 100 µM and the TGI (SK-MEL-28 melanoma) was > 77.2 µM. The TGI (SK-MEL-5 melanoma) was 30.4 µM, the TGI (SK-OV-3 ovarian) was > 100 µM and the TGI (SN12C renal) was > 100 µM. The TGI (SNB-19 CNS) was > 100 µM, the TGI (SNB-75 CNS) was > 100 µM and the TGI (SR leukemia) was 46.6 µM. For the same compound, the TGI (SW-620 colon) was > 71.2 µM, the TGI (T-47D breast) was > 100 µM and the TGI (TK-10 renal) was > 75.4 µM. For the same compound, the TGI (U251 CNS) was > 100 µM, the TGI (UACC-257 melanoma) was > 63.8 µM and the TGI (UACC-62 melanoma) was > 100 µM. The TGI (UO-31 renal) was > 100 µM.
